Tests used:
p-CHK1 (Ser345) = assay: AlphaLISA SureFire Ultra p-CHK1 (Ser345) cellular assay in HT29 cells; assay type: cell-based; settings: Homo sapiens, HT-29, 16 h at 37° C.
Procedure: Example B: AlphaLisa Cellular Assay
Compound activity in cells was measured using an AlphaLISA® SureFire® Ultra™ p-CHK1 (Ser345) assay (Perkin Elmer, catalog no. ALSU-PCHK1-A10K). HT29 cells were cultured in McCoy 5A medium with 10% FBS and 1% penicillin-streptomycin and seeded to 96-well plates (Corning, catalog no. 3599). Compounds were serially diluted in DMSO over a 10-point dose range with 3-fold dilution and to each well containing cells was added compound solution. Plates were centrifuged at 1000 rpm for 30 seconds. Plates were incubated at 37° C. for 16 h. Supernatant was removed by flicking the plate against a paper towel. Wells were washed once with PBS solution. To each well was added freshly prepared lysis buffer and plates were agitated on a plate shaker at 400 rpm for 30 min. The 96-well cell plates were centrifuged at 1500 rpm for 1 minute. From each well was transferred 10 μL of the lysates to a 384-well Optiplate™ (Perkin Elmer, catalog no. 6007290). To each well was added Acceptor Mix (5 μL) and the plates were sealed and wrapped in foil. Plates were agitated on a plate shaker for 2 minutes, then incubated at room temperature for 1 h. To each well was added Donor Mix (5 μL) and the plates were sealed and wrapped in foil. Plates were agitated on a plate shaker for 2 minutes, then incubated at room temperature for 1 h. AlphaLisa signal was read on an EnVision multimode plate reader (Perkin Elmer). Data were fit to dose-response curves using XLfit (IDBS, Surrey, UK) or Prism (GraphPad Software, La Jolla, Calif., US) to calculate IC50 values for each compound tested.

[1] = biological target: T1, Full-length human Chk1 protein (Homo sapiens, UniProt O14757); assay: Kinase HTRF biochemical assay (HTRF KinEASE), Chk1 enzyme activity; settings: full-length human Chk1, ATP 1 mM, 60 minutes at room temperature
T1 construct: purchased Carna Biosciences, Inc. 02-117
T1 sequence (O14757 1-476): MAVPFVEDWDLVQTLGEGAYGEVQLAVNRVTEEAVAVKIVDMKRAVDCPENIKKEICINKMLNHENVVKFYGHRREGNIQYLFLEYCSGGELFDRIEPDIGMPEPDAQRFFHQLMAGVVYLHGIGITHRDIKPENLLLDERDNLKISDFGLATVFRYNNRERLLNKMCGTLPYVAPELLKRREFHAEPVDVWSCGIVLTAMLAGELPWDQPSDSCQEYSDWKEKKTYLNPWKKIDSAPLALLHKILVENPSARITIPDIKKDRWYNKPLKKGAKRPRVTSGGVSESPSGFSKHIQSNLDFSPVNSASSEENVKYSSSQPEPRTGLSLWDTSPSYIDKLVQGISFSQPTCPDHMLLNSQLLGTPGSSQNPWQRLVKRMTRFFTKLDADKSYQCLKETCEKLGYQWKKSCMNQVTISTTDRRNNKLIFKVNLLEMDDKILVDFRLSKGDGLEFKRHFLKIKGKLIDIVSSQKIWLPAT
Procedure: Example A: Kinase HTRF Biochemical Assay
Chk1 enzyme activity was measured using an HTRF KinEASE assay (Cisbio, catalog no. 62ST1PEC). Full-length human Chk1 protein (GenBank accession number NP_001265.1) was obtained from Carna Biosciences, Inc. (Kobe, Japan, catalog no. 02-117). The enzyme reaction was carried out in assay buffer containing (final concentrations): Chk1 enzyme (0.012 ng/μL), MgCl2 (5 mM) and DTT (1 mM). To determine compound dose response, DMSO stock solutions were serially diluted in a 10-point concentration series in duplicate. Compound solution (50 nL) was added to 384-well assay plates (Greiner, catalog no. 784075). To each well containing compound solution was added assay buffer solution (5 μL). Plates were centrifuged at 1000 rpm for 1 minute, then incubated at room temperature for 10 minutes. The reaction was started by addition of substrate buffer (5 μL/well) containing (final concentrations): STK substrate 1-biotin (120 nM) and ATP (1 mM). Assay plates were centrifuged at 1000 rpm for 1 minute, then incubated at room temperature for 60 minutes. The reaction was stopped by addition of detection buffer (Cisbio, 10 μL) containing (final concentrations): STK antibody-cryptate (0.25 nM) and streptavidin-XL665 (7.5 nM). Plates were centrifuged at 1000 rpm for 1 minute, then incubated at 25° C. for 2 hours. HTRF signal was read on an EnVision multimode plate reader […] in HTRF mode. Data were fit to dose-response curves using XLfit (IDBS, Surrey, UK) or Prism (GraphPad Software, La Jolla, Calif., US) to calculate IC50 values for each compound tested.

IC50 (p-CHK1 (Ser345))	IC50 [1]	SMILES
500 to 1000 nM	10 to 100 nM	N#Cc1cnc(Nc2cc(-c3c(F)cc(Cl)cc3O[C@@H]3CC[C@H](N)C3)[nH]n2)cn1 [Example 3-24, 5-((5-(2-(((1R,3S)-3-aminocyclopentyl)oxy)-4-chloro-6-fluorophenyl)-1H-pyrazol-3-yl)amino)pyrazine-2-carbonitrile]
> 1000 nM	100 to 500 nM	N#Cc1cnc(Nc2cc(-c3ccccc3O[C@H]3CC[C@@H](N)CC3)[nH]n2)cn1 [Example 1-50, 5-((5-(2-(((1s,4s)-4-aminocyclohexyl)oxy)phenyl)-1H-pyrazol-3-yl)amino)pyrazine-2-carbonitrile]
100 to 500 nM	10 to 100 nM	CN[C@@H]1CC[C@@H](Oc2cc(Cl)cc(F)c2-c2cc(Nc3cnc(C#N)cn3)n[nH]2)C1 [Example 3-25, 5-((5-(4-chloro-2-fluoro-6-(((1R,3R)-3-(methylamino)cyclopentyl)oxy)phenyl)-1H-pyrazol-3-yl)amino)pyrazine-2-carbonitrile]
100 to 500 nM	10 to 100 nM	CN[C@@H]1CC[C@@H](Oc2ccc(F)c(F)c2-c2cc(Nc3cnc(C#N)cn3)n[nH]2)C1 [Example 3-1, 5-((5-(2,3-difluoro-6-(((1R,3R)-3-(methylamino)cyclopentyl)oxy)phenyl)-1H-pyrazol-3-yl)amino)pyrazine-2-carbonitrile]
100 to 500 nM	10 to 100 nM	Cc1cc(F)c(-c2cc(Nc3cnc(C#N)cn3)n[nH]2)c(O[C@@H]2CC[C@H](N)C2)c1 [Example 5-2, 5-((5-(2-(((1R,3S)-3-aminocyclopentyl)oxy)-6-fluoro-4-methylphenyl)-1H-pyrazol-3-yl)amino)pyrazine-2-carbonitrile]
≤ 50 nM	≤ 10 nM	CN[C@@H]1CC[C@@H](Oc2cc(C)cc(F)c2-c2cc(Nc3cnc(C#N)cn3)n[nH]2)C1 [Example 5-3, 5-((5-(2-fluoro-4-methyl-6-(((1R,3R)-3-(methylamino)cyclopentyl)oxy)phenyl)-1H-pyrazol-3-yl)amino)pyrazine-2-carbonitrile]
≤ 50 nM	≤ 10 nM	COc1cccc(O[C@H]2CC3(C[C@@H](N)C3)C2)c1-c1cc(Nc2cnc(C#N)cn2)n[nH]1 (some centres unmarked) [Example 3-10, 5-((5-(2-((6-aminospiro[3.3]heptan-2-yl)oxy)-6-methoxyphenyl)-1H-pyrazol-3-yl)amino)pyrazine-2-carbonitrile]
50 to 100 nM	≤ 10 nM	COc1cccc(O[C@@H]2CC[C@@H](N(C)C)C2)c1-c1cc(Nc2cnc(C#N)cn2)n[nH]1 [Example 1-48, 5-((5-(2-(((1R,3R)-3-(dimethylamino)cyclopentyl)oxy)-6-methoxyphenyl)-1H-pyrazol-3-yl)amino)pyrazine-2-carbonitrile]
100 to 500 nM	10 to 100 nM	N#Cc1cnc(Nc2cc(-c3ncccc3O[C@H]3CC[C@@H](N)C3)[nH]n2)cn1 [Example 3-42, 5-((5-(3-(((1S,3R)-3-aminocyclopentyl)oxy)pyridin-2-yl)-1H-pyrazol-3-yl)amino)pyrazine-2-carbonitrile]
> 1000 nM	100 to 500 nM	N#Cc1cnc(Nc2cc(-c3ncccc3O[C@@H]3CC[C@@H](N)C3)[nH]n2)cn1 (stereo in doubt) [Example 1-59, 5-((5-(3-(((1R,3R)-3-aminocyclopentyl)oxy)pyridin-2-yl)-1H-pyrazol-3-yl)amino)pyrazine-2-carbonitrile]
≤ 50 nM	≤ 10 nM	COc1cccc(OC2CCC(N)C2C)c1-c1cc(Nc2cnc(C#N)cn2)n[nH]1 (centres unmarked) [Example 1-47, 5-((5-(2-((3-amino-2-methylcyclopentyl)oxy)-6-methoxyphenyl)-1H-pyrazol-3-yl)amino)pyrazine-2-carbonitrile]

Further lines, the compound ahead of its results:

SMILES	IC50 (p-CHK1 (Ser345))	IC50 [1]
N#Cc1cnc(Nc2cc(-c3ccccc3O[C@H]3C[C@H](N)C3)[nH]n2)cn1 [Example 1-9, 5-((5-(2-((1r,3r)-3-aminocyclobutoxy)phenyl)-1H-pyrazol-3-yl)amino)pyrazine-2-carbonitrile]	100 to 500 nM	10 to 100 nM
N#Cc1cnc(Nc2cc(-c3c(F)cccc3O[C@@H]3CC[C@H](N)C3)[nH]n2)cn1 [Example 1-22, 5-((5-(2-(((1R,3S)-3-aminocyclopentyl)oxy)-6-fluorophenyl)-1H-pyrazol-3-yl)amino)pyrazine-2-carbonitrile]	100 to 500 nM	10 to 100 nM
COc1cccc(O[C@H]2CC[C@@H]2N)c1-c1cc(Nc2cnc(C#N)cn2)n[nH]1 [Example 3-5, 5-((5-(2-((1S,2S)-2-aminocyclobutoxy)-6-methoxyphenyl)-1H-pyrazol-3-yl)amino)pyrazine-2-carbonitrile]	≤ 50 nM	≤ 10 nM
CN[C@H]1CC[C@@H](Oc2cccc(OC)c2-c2cc(Nc3cnc(C#N)cn3)n[nH]2)C1 [Example 1-46, 5-((5-(2-methoxy-6-(((1R,3S)-3-(methylamino)cyclopentyl)oxy)phenyl)-1H-pyrazol-3-yl)amino)pyrazine-2-carbonitrile]	≤ 50 nM	≤ 10 nM
N#Cc1cnc(Nc2cc(-c3ncccc3O[C@H]3C[C@H](N)C3)[nH]n2)cn1 [Example 1-55, 5-((5-(3-((1r,3r)-3-aminocyclobutoxy)pyridin-2-yl)-1H-pyrazol-3-yl)amino)pyrazine-2-carbonitrile]	500 to 1000 nM	10 to 100 nM
CN[C@H]1C[C@H](Oc2ccc(C)nc2-c2cc(Nc3cnc(C#N)cn3)n[nH]2)C1 [Example 1-61, 5-((5-(6-methyl-3-((1r,3r)-3-(methylamino)cyclobutoxy)pyridin-2-yl)-1H-pyrazol-3-yl)amino)pyrazine-2-carbonitrile]	100 to 500 nM	10 to 100 nM
COc1cccc(O[C@H]2C[C@@H](N)C2)c1-c1cc(Nc2cnc(C#N)cn2)n[nH]1 [Example 1-4, 5-((5-(2-((1s,3s)-3-aminocyclobutoxy)-6-methoxyphenyl)-1H-pyrazol-3-yl)amino)pyrazine-2-carbonitrile]	> 1000 nM	100 to 500 nM
COc1cccc(O[C@@H]2CC[C@@H](N)C2)c1-c1cc(Nc2cnc(C#N)cn2)n[nH]1 [Example 1-8, 5-((5-(2-(((1R,3R)-3-aminocyclopentyl)oxy)-6-methoxyphenyl)-lH-pyrazol-3-yl)amino)pyrazine-2-carbonitrile]	≤ 50 nM	≤ 10 nM
Cc1nc(Nc2cc(-c3ccccc3O[C@@H]3CC[C@H](N)C3)[nH]n2)cnc1C#N [Example 1-40, 5-((5-(2-(((1R,3S)-3-aminocyclopentyl)oxy)phenyl)-1H-pyrazol-3-yl)amino)-3-methylpyrazine-2-carbonitrile]	> 1000 nM	100 to 500 nM
CN[C@@H]1CC[C@@H](Oc2cccc(F)c2-c2cc(Nc3cnc(C#N)cn3)n[nH]2)C1 [Example 1-43, 5-((5-(2-fluoro-6-(((1R,3R)-3-(methylamino)cyclopentyl)oxy)phenyl)-1H-pyrazol-3-yl)amino)pyrazine-2-carbonitrile]	≤ 50 nM	10 to 100 nM
CCOc1cccc(O[C@H]2CC[C@H](N)CC2)c1-c1cc(Nc2cnc(C#N)cn2)n[nH]1 [Example 1-17, 5-((5-(2-(((1r,4r)-4-aminocyclohexyl)oxy)-6-ethoxyphenyl)-1H-pyrazol-3-yl)amino)pyrazine-2-carbonitrile]	500 to 1000 nM	10 to 100 nM
